# In PMC13198257, “An aerosolized dual-action autotaxin inhibitor-PPARγ agonist for the treatment of pulmonary fibrosis” (Cell Reports Medicine, 2026):
# Test system: lung gene expression
# Experiment: RNA sequencing of lung tissue (BLM/EL244 vs BLM)
# Type: in vivo, mouse
# Method: RNA quality was assessed using an Agilent TapeStation 4150 with the High Sensitivity […] ScreenTape (Agilent), according to the manufacturer’s protocols. For library preparation, the QuantSeq 3’mRNA-Seq Library Prep Kit (Lexogen) was used according to manufacturer’s instructions. Briefly, 500 ng of RNA from each sample was used for first-strand synthesis, followed by RNA template removal, and second-strand synthesis initiated by random primers. In-line barcodes were introduced at this step, and this was followed by magnetic bead-based purification. The resulting libraries were amplified for 15 cycles and re-purified, with quantity and quality assessed on a Qubit 4 Fluorometer with the Invitrogen Qubit dsDNA HS Assay and an Agilent Tapestation 4150 with the High Sensitivity D1000 assay kit, respectively. The quantified libraries were pooled equimolarly; 50ng of total library mix was used for Adapter Conversion PCR Amplification using the Universal Library Conversion Kit (App-A), Version: V1.0 (MGI Tech Co., Ltd.), according to the manufacturer’s instructions.
# The quantity and quality of the purified adapter conversion PCR (AC-PCR) product were evaluated on a Qubit 4 Fluorometer with the Invitrogen Qubit dsDNA HS Assay and on an Agilent Tapestation 4150 with the High Sensitivity D1000 assay kit, respectively. This was followed by DNA denaturation, Single-Strand Circularisation, Enzymatic Digestion, Enzymatic Digestion Product Cleanup and Quality Control steps on 1 pmol of AC-PCR product, according to the Universal Library Conversion Kit (App-A) User Manual (Version: A3).
# Finally, 60 fmol of ssCirDNA were used for DNB preparation and sequencing on a DNBSEQ-G400 platform at the BSRC Alexander Fleming Genomics Facility, using a G400 App-A FCS SE100 High-throughput Sequencing Set (MGI Tech Co., Ltd.), according to the manufacturer’s instructions.
# Alignment of the FASTQ files was performed against the mouse genome build mm10 using a custom Bash script.[143] Read counting on the 3′ UTRs and differential expression analysis were conducted using the metaseqR2 bioconductor package.[144] Genes corresponding to the following biotypes were excluded: polymorphic_pseudogene, processed_transcript, pseudogene, IG_V_pseudogene, misc_RNA, IG_C_gene, IG_J_gene, IG_D_gene, IG_LV_gene, TR_V_gene, TR_V_pseudogene, TEC, and processed_pseudogene. Gene counts were normalized with DESEQ[145] through metaseqR2. Genes with more than 10 counts in at least 50% of the samples were kept for further processing. For differential expression analysis, the PANDORA algorithm[146] was used to estimate a meta p-value integrating the results from the DESEQ, DESEQ2,[147] edgeR,[148] limma,[149] NBPSeq,[150] and NOISeq[151] algorithms. All additional parameters were set to default values.
# Pathway enrichment analysis was performed for the Gene Ontology Biological process (BP) and Molecular Function (MF) terms through GeneCodis 4.[152] The volcano plots, scatterplots, Venn diagrams, and dot plots were generated using the ggplot2 Bioconductor package.
compound,measurement,setting,value
"O=C1NC(=O)C(Cc2ccc(OCCC3CCN(C(=O)OCc4cc(Cl)cc(Cl)c4)CC3)cc2)S1 (stereo not drawn) [EL244, 3,5-dichlorobenzyl 4-(2-(4-((2,4-dioxothiazolidin-5-yl)methyl)phenoxy)ethyl)piperidine-1-carboxylate]",log2 nFC BLM/EL244 vs BLM,DEG Ccl9,-1.37
same,log2 nFC BLM/EL244 vs BLM,DEG Ccnb1,-2.41
same,Cd300lg log2 nFC BLM/EL244 vs BLM,"DEG Cd300lg, nFC: normalised fold change",1.18
same,log2 nFC BLM/EL244 vs BLM,DEG Cdc20,-1.58
same,log2 nFC BLM/EL244 vs BLM,DEG Cdca2,-1.33
same,log2 nFC BLM/EL244 vs BLM,DEG Cenpa,-1.31
same,log2 nFC BLM/EL244 vs BLM,DEG Cenpk,-1.51
same,log2 nFC BLM/EL244 vs BLM,DEG Cenpw,-1.33
same,Cep85l log2 nFC BLM/EL244 vs BLM,"DEG Cep85l, nFC: normalised fold change",1.02
same,log2 nFC BLM/EL244 vs BLM,DEG Cercam,-1.37
same,Cfap100 log2 nFC BLM/EL244 vs BLM,"DEG Cfap100, nFC: normalised fold change",0.89
same,Cfap206 log2 nFC BLM/EL244 vs BLM,"DEG Cfap206, nFC: normalised fold change",0.77
same,Cftr log2 nFC BLM/EL244 vs BLM,"DEG Cftr, nFC: normalised fold change",0.96
same,Chia1 log2 nFC BLM/EL244 vs BLM,"DEG Chia1, nFC: normalised fold change",1.16
same,Chrdl1 log2 nFC BLM/EL244 vs BLM,"DEG Chrdl1, nFC: normalised fold change",1.39
same,log2 nFC BLM/EL244 vs BLM,DEG Chsy3,-1.56
same,Cidec log2 nFC BLM/EL244 vs BLM,"DEG Cidec, nFC: normalised fold change",1.57
same,log2 nFC BLM/EL244 vs BLM,DEG Cilp,-1.39
same,log2 nFC BLM/EL244 vs BLM,DEG Ckap2,-2.44
same,Ckm log2 nFC BLM/EL244 vs BLM,"DEG Ckm, nFC: normalised fold change",2.32
same,Ckmt2 log2 nFC BLM/EL244 vs BLM,"DEG Ckmt2, nFC: normalised fold change",2.73
same,log2 nFC BLM/EL244 vs BLM,DEG Cks1b,-1.54
same,Cldn5 log2 nFC BLM/EL244 vs BLM,"DEG Cldn5, nFC: normalised fold change",0.97
same,log2 nFC BLM/EL244 vs BLM,DEG Clec4a2,-1.26
same,log2 nFC BLM/EL244 vs BLM,DEG Clec4n,-1.39
same,log2 nFC BLM/EL244 vs BLM,DEG Col1a2,-1.41
same,log2 nFC BLM/EL244 vs BLM,DEG Col3a1,-1.54
same,log2 nFC BLM/EL244 vs BLM,DEG Col5a1,-1.52
same,log2 nFC BLM/EL244 vs BLM,DEG Col5a2,-1.48
same,log2 nFC BLM/EL244 vs BLM,DEG Col5a3,-1.53
same,Colq log2 nFC BLM/EL244 vs BLM,"DEG Colq, nFC: normalised fold change",1.81
same,Cox6a2 log2 nFC BLM/EL244 vs BLM,"DEG Cox6a2, nFC: normalised fold change",1.42
same,Crebl2 log2 nFC BLM/EL244 vs BLM,"DEG Crebl2, nFC: normalised fold change",0.79
same,Crispld2 log2 nFC BLM/EL244 vs BLM,"DEG Crispld2, nFC: normalised fold change",0.80
same,Cry2 log2 nFC BLM/EL244 vs BLM,"DEG Cry2, nFC: normalised fold change",0.70
same,Csf3r log2 nFC BLM/EL244 vs BLM,"DEG Csf3r, nFC: normalised fold change",1.69
same,Csrnp1 log2 nFC BLM/EL244 vs BLM,"DEG Csrnp1, nFC: normalised fold change",0.83
same,Csrp3 log2 nFC BLM/EL244 vs BLM,"DEG Csrp3, nFC: normalised fold change",2.07
same,Cst8 log2 nFC BLM/EL244 vs BLM,"DEG Cst8, nFC: normalised fold change",1.41
same,Ctla2a log2 nFC BLM/EL244 vs BLM,"DEG Ctla2a, nFC: normalised fold change",0.72
same,Ctla2b log2 nFC BLM/EL244 vs BLM,"DEG Ctla2b, nFC: normalised fold change",0.96
same,log2 nFC BLM/EL244 vs BLM,DEG Cxcl13,-1.42
same,Cxcr2 log2 nFC BLM/EL244 vs BLM,"DEG Cxcr2, nFC: normalised fold change",1.19
same,Cyp2a5 log2 nFC BLM/EL244 vs BLM,"DEG Cyp2a5, nFC: normalised fold change",1.66
same,Cyp2d22 log2 nFC BLM/EL244 vs BLM,"DEG Cyp2d22, nFC: normalised fold change",0.97
same,Cyp2f2 log2 nFC BLM/EL244 vs BLM,"DEG Cyp2f2, nFC: normalised fold change",0.79
same,Cyp4b1 log2 nFC BLM/EL244 vs BLM,"DEG Cyp4b1, nFC: normalised fold change",1.18
same,log2 nFC BLM/EL244 vs BLM,DEG Cyp7b1,-1.41
same,Cytl1 log2 nFC BLM/EL244 vs BLM,"DEG Cytl1, nFC: normalised fold change",1.67
same,D630024D03Rik log2 nFC BLM/EL244 vs BLM,"DEG D630024D03Rik, nFC: normalised fold change",1.60
same,Dgkh log2 nFC BLM/EL244 vs BLM,"DEG Dgkh, nFC: normalised fold change",0.84
same,Dnali1 log2 nFC BLM/EL244 vs BLM,"DEG Dnali1, nFC: normalised fold change",0.73
same,log2 nFC BLM/EL244 vs BLM,DEG Dok2,-1.37
same,Dpep1 log2 nFC BLM/EL244 vs BLM,"DEG Dpep1, nFC: normalised fold change",0.71
same,Dpysl5 log2 nFC BLM/EL244 vs BLM,"DEG Dpysl5, nFC: normalised fold change",1.90
same,Dusp1 log2 nFC BLM/EL244 vs BLM,"DEG Dusp1, nFC: normalised fold change",0.86
same,log2 nFC BLM/EL244 vs BLM,DEG E2f8,-1.57
